Test results from ChEMBL document CHEMBL1201862, “PubChem BioAssay data set” (2004).
The source made the active and inactive calls.

Tests used:
[1] = system: BJ; experiment: cytotoxicity toward BJ-TERT fibroblasts, dose response, cell-based, RAS-independent, luminescence (AID 1933); type: functional; details: Homo sapiens
[2] = system: BJ; experiment: cells; type: functional, cell-based; details: Homo sapiens
[3] = target: Large T antigen (Simian virus 40, UniProt P03070); type: functional, Betapolyomavirus macacae;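 further: Confirmatory-stage PubChem screen for compounds that inhibit SV40 T antigen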
[4] = target: Luciferin 4-monooxygenase (Photinus pyralis, UniProt P08659); experiment: firefly luciferase enzyme inhibitors, dose response, biochemical, luminescence (AID 1891)
[5] = Luminescence Cell-Based Dose Confirmation HTS to Identify Inhibitors of Platelet Dense Granule Release. [Related pubchem assays: 1663 (Primary HTS), 1678 (Summary of Project)]; type: functional
[6] = system: BJ; experiment: cytotoxicity toward BJ-TERT-LT-ST fibroblasts, dose response, cell-based, RAS-independent, luminescence (AID 1935); type: functional; details: Homo sapiens;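 further: BJ fibroblasts immortalized with TERT plus LT and ST oncogenes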
[7] = cytotoxicity toward DRD oncogenic fibroblasts, dose response, cell-based, non-viral oncogenic, luminescence (AID 1934); type: functional; details: Homo sapiens
[8] = system: CHO; experiment: cytotoxicity in TLR9-MyD88 CHO cells, dose response, cytotoxicity control for TLR9-MyD88 binding inhibitor project, cell-based, luminescence (AID 588339); type: functional, hamster; details: Cricetulus griseus;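 further: CHO cells stably coexpressing TLR9 and MyD88 fusions from primary screen; compound exposure lasted 48 hours before viability readout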
[9] = target: T1, Replicative DNA helicase DnaB (Mycobacterium tuberculosis, UniProt P9WMR3); experiment: DnaB intein splicing inhibitors, dose response, biochemical, cell-free fluorescence (AID 449749); type: functional
T1 sequence (P9WMR3 whole entry): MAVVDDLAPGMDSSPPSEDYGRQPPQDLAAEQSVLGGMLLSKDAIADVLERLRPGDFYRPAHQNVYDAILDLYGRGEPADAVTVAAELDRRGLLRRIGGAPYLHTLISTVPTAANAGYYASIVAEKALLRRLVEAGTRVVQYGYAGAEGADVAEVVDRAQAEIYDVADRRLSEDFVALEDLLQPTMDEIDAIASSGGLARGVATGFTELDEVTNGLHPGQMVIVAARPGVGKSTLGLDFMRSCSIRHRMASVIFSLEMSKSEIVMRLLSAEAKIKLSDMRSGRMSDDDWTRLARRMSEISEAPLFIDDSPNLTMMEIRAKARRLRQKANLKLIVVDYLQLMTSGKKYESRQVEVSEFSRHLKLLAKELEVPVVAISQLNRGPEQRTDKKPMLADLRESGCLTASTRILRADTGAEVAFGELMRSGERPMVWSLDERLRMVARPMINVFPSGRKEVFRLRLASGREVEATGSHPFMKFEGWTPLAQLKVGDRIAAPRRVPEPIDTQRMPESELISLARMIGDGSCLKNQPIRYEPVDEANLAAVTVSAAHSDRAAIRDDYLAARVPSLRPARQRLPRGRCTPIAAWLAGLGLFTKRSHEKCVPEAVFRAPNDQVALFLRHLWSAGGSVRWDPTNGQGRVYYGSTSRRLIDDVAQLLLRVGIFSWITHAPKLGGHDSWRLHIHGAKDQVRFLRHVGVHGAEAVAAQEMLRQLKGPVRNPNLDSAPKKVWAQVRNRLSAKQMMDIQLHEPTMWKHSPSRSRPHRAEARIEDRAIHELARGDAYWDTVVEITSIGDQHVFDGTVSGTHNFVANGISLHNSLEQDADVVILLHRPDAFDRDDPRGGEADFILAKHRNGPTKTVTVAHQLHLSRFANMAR

[10] = system: Vero; experiment: Vero cell cytotoxicity, cytotoxicity control for flavivirus capping enzyme inhibitors (AID 588742); type: functional; details: Chlorocebus sabaeus
[11] = system: BJ; experiment: cytotoxicity toward Ras-transformed BJeLR fibroblasts, dose response, cell-based, alamar blue fluorescence, cherrypicked samples (AID 2631); type: functional; details: Homo sapiens;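 further: confirmatory dose-response assay in RAS-dependent BJ fibroblasts engineered with TERT, LT and ST, with cytotoxicity read by fluorescence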
[12] = target: T2, Protein RecA (Mycobacterium tuberculosis, UniProt P9WHJ3); experiment: Fluorescence Cell-Free Homogeneous Dose Retest to Identify Inhibitors of RecA-Intein Splicing Activity. [Related pubchem assays (depositor defined):AID2097, AID2223, AID489010, AID492950]; type: functional
T2 sequence (P9WHJ3 whole entry): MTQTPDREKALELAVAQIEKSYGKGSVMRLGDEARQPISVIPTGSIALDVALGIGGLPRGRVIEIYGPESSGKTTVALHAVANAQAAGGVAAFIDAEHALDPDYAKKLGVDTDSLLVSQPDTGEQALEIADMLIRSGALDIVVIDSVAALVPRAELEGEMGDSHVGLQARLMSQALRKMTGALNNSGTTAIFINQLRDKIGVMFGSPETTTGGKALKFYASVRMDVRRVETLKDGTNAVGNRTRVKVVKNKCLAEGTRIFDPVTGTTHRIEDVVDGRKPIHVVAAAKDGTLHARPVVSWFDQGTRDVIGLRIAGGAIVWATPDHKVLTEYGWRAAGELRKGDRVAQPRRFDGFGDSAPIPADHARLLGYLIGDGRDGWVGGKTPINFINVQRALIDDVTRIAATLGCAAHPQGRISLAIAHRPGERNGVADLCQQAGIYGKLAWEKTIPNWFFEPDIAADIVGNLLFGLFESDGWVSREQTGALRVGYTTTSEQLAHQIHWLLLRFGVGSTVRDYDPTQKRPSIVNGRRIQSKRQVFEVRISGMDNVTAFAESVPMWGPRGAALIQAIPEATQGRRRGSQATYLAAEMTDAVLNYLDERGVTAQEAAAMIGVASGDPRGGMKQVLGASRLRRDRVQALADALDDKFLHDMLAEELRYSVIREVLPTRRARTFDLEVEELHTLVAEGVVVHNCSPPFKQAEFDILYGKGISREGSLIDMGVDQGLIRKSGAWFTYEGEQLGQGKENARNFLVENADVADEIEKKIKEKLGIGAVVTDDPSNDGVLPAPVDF

[13] = target: T3, Beta Lactamase (Pseudomonas aeruginosa, UniProt Q932Y6); experiment: beta-lactamase reporter inhibitor potency, dose response, artefact control for TLR9-MyD88 binding inhibitor project, BLA reporter cells, FRET fluorescence (AID 588341); type: cell-based;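 further: cell based assay in CHO-K1 cells stably expressing beta-lactamase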
[14] = system: INS1; experiment: beta cell apoptosis inhibitors, cytokine rescue, dose response, luminescence, retest (AID 449756); type: functional, cell-based; details: Rattus norvegicus;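 further: cell death triggered by IL-1 beta plus TNF-alpha plus IFN-gamma mixture; protective hits raise ATP signal compared with cytokine alone wells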
[15] = target: Genome polyprotein (dengue virus type 2, UniProt P29990); experiment: Dengue-2 NS5 methyltransferase inhibitors, primary screen, biochemical, confirmation dose response (AID 588689); type: functional
[16] = Fluorescence-based cell-based high throughput dose response assay for inhibitors of the interaction of nucleotide-binding oligomerization domain containing 2 (NOD2) and the receptor-interacting serine-threonine kinase 2 (RIPK2).; type: functional; details: Homo sapiens
[17] = target: T3, Beta Lactamase; experiment: beta-lactamase reporter inhibitor potency, dose response, artefact control for NOD2-RIPK2 interaction inhibitor project, BLA reporter cells, FRET fluorescence (AID 651552); type: functional, cell-based
[18] = target: T4, Fatty acid synthase (Homo sapiens, UniProt P49327); experiment: FAS thioesterase domain inhibitors, dose response, biochemical, endpoint fluorescence intensity, uHTS hits (AID 624327); type: functional;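 further: fluorescence from hydrolysis of an O-methyl fluorescein acyl ester substrate by the enzyme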
[19] = target: T4, Fatty acid synthase; experiment: FAS thioesterase domain inhibitors, dose response, biochemical, kinetic fluorescence intensity (AID 624326); type: functional;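 further: rate of fluorescence rise from hydrolysis of a fluorogenic O-methyl fluorescein ester substrate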
[20] = growth suppression of PTEN-null colon cells, dose response, cell-based, HCT116 PTEN knockout (AID 1047); type: functional;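 further: HCT116 colon tumor cells with PTEN knocked out; cells exposed to compound for 60 hours before readout; potency for loss of cell viability measured by luminescence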
[21] = growth suppression of beta-catenin-knockout colon cells, dose response, cell-based, HCT116, human colon tumor (AID 1045); type: functional;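 further: HCT116 colon tumor cells with beta catenin knocked out; cells exposed to compound for 60 hours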
[22] = target: T5, Orexin receptor type 2 (Homo sapiens, UniProt O43614); experiment: Counterscreen assay for antagonists of the orexin 1 receptor (OX1R; HCRTR1): Fluorescence-based cell-based dose response assay for antagonists of the orexin 2 receptor (OX2R; HCRTR2), run by assay provider.; type: functional
T5 sequence (O43614 whole entry): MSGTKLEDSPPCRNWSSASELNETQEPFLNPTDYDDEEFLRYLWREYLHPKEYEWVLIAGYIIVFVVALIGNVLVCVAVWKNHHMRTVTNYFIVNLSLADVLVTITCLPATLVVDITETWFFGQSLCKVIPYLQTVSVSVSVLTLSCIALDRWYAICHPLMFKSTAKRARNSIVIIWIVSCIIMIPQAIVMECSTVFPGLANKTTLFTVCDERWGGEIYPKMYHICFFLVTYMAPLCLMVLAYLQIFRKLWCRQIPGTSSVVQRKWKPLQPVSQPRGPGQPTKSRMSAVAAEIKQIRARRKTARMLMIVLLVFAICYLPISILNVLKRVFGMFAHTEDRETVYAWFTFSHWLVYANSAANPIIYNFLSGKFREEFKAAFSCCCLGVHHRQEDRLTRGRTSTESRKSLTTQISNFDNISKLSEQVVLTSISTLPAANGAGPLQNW

[23] = target: T5, Orexin receptor type 2; experiment: Counterscreen assay for antagonists of the orexin 1 receptor (OX1R; HCRTR1): Homogeneous Time Resolved Fluorescence (HTRF)-based cell-based dose response assay for antagonists of the orexin 2 receptor (OX2R; HCRTR2), run by assay provider.; type: functional
[24] = inhibitors of firefly luciferase expression or activity, dose response, H4 neuroglioma cells, luminescence (AID 1990); type: functional, cell-based
[25] = Luminescence Cell-Based Dose Response HTS to Identify Inhibitors of 5'UTR Stem-Loop Driven Prion Protein mRNA Translation in H4 Neuroglioblastoma Cells. [Related pubchem assays: 1827 (Project Summary), 1813 (Primary HTS)]; type: functional
[26] = inhibitors of SNCA 5'UTR-driven reporter translation, confirmation, H4 neuroglioma cells, luminescence (AID 1988); type: functional, cell-based
[27] = target: T6, E3 ubiquitin-protein ligase XIAP (Homo sapiens, UniProt P98170); experiment: Counter Screen using XIAP-Bir3 for Chemical Antagonists of Bir1/2 domains of IAP-family anti-apoptotic proteins. [Related pubchem assays (depositor defined):AID1018, AID1449, AID1514, AID1638, AID1749, AID1750, AID488957, AID488963]
[28] = target: T6, E3 ubiquitin-protein ligase XIAP; experiment: XIAP antagonists, biochemical, IAP family, fluorescence polarization (AID 1018); type: functional
[29] = target: T7, Microphthalmia-associated transcription factor (Homo sapiens, UniProt O75030); experiment: TRPM1 promoter luciferase signal decrease, dose response, MITF inhibitor project, cell-based, SK-MEL-5, cherry-picked, set 3 (AID 493073); type: functional
T7 sequence (O75030 whole entry): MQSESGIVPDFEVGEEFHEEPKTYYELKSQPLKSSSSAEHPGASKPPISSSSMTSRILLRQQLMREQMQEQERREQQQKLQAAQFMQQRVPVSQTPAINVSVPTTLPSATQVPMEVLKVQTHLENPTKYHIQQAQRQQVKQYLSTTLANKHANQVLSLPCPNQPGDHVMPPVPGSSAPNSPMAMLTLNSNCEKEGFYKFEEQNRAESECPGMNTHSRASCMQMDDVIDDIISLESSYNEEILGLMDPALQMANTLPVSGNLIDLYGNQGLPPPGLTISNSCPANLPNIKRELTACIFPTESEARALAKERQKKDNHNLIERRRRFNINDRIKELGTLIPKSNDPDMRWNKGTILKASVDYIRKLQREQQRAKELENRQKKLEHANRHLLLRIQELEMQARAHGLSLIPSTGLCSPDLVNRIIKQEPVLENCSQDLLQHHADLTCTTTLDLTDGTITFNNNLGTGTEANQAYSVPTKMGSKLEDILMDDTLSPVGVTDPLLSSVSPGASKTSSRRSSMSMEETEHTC

[30] = cytotoxicity in HEK-293T cells, dose response, cytotoxicity control for BCR NF-kB inhibitor project, luminescence, B-cell screen hits (AID 489021); type: functional, cell-based;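 further: HEK-293T cells carrying an NF-kB luciferase reporter; cells exposed to compound for about 14 hours before viability readout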
[31] = system: HEK293; experiment: cytotoxicity in HEK293T NF-kB-Luc cells, SAR follow-up, cytotoxicity control for NF-kB activator project, cell-based, resazurin fluorescence (AID 493251); type: functional; details: Homo sapiens
[32] = target: Troponin, cardiac muscle (Homo sapiens, UniProt P19429+P45379+P63316); experiment: Fluorescence-based biochemical high throughput dose response assay for activators of the calcium sensitivity of cardiac Regulated Thin Filaments (RTF). [Related pubchem assays (depositor defined):AID493008, AID493018, AID504382, AID504383]; type: protein-complex assay
[33] = target: Cysteine protease ATG4B (Homo sapiens, UniProt Q9Y4P1); type: functional;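 further: Fluorescence-based dose-response confirmation assay measuring inhibition of ATG4B activity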
[34] = target: Phospholipase A2 (Homo sapiens, UniProt P04054); type: functional;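 further: confirmatory dose-response counterscreen on phospholipase A2, testing hits that came from an ultra-high-throughput screen for ATG4B inhibitors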
[35] = target: Heat shock protein HSP 90-alpha (Homo sapiens, UniProt P07900); type: functional, organism-based
[36] = target: Photoreceptor-specific nuclear receptor (Homo sapiens, UniProt Q9Y5X4); type: functional, cell-based;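 further: CHO-S cells with Gal4-NCOR and VP16-NR2E3 two-hybrid luciferase reporter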

O=[N+]([O-])c1c(Nc2ccc(O)cc2)cc(Cl)c2nonc12
active: IC50 [3] 12.3 µM | EC50 [5] 4.2 µM | EC50 [7] 2.66 µM | IC50 [8] 1.13 µM | AC50 [9] 1.1 µM | CC50 [10] 16.9 µM | EC50 [11] 0.501 µM | EC50 [12] 0.926 µM | IC50 [13] 6.38 µM | AC50 [14] 5.23 µM | IC50 [15] 10.4 µM | IC50 [16] 0.969 µM | IC50 [17] 5.98 µM | IC50 [18] 5.26 µM | IC50 [19] 4.41 µM
> 112 µM (not active): EC50 [4]
inconclusive: EC50 [1] 1.92 µM | EC50 [2] 5.3 µM | EC50 [6] 3.96 µM

O=C(c1ccco1)N1CCCC(c2nc(-c3ccc(S(=O)(=O)NCc4ccccc4)cc3)no2)C1 (stereo not given)
inactive: IC50 [22] 39.3 µM
active: EC50 [20] 21.2 µM | EC50 [21] 18.6 µM | IC50 [23] 5.51 µM

CCOc1ccc(-c2noc(CCC(=O)O)n2)cc1
> 100 µM (not active): IC50 [28]
active: EC50 [24] 6.28 µM | EC50 [25] 15 µM | EC50 [26] 7.97 µM | AC50 [29] 2.61 µM
inactive: IC50 [27] > 100 µM | IC50 [30] > 80 µM | IC50 [31] > 80 µM

Fc1ccc(CN=C(S)NCc2ccc(F)cc2)cc1
inactive: EC50 [32] > 71.5 µM
active: IC50 [33] 12.3 µM | IC50 [34] 9.33 µM

Cc1sc(NC(=O)c2ccccc2)c(C(=O)c2ccccc2)c1C
active: IC50 [33] 15.3 µM | IC50 [34] 9.18 µM

O=c1c(Br)ccc(Br)cc1Br
active: IC50 [8] 0.558 µM | AC50 [35] 0.438 µM | IC50 [13] 6.14 µM | IC50 [36] 3.72 µM
